Results: ChEMBL document CHEMBL1201862, “PubChem BioAssay data set” (2004)
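Cultured in 96-well plates, cells were exposed to test compound for 48 hours across five concentrations. At the GI50, growth is halved.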 The source made the active and inactive calls. Rule as the data show it: active = GI50 up to about 1.1 µM and inactive = higher. Square brackets hold non-standard residues; d marks the D form. Peptide text beside a SMILES is read from it.

Tests used:
Assay in all cases: NCI tumour cell line growth inhibition, 48 h
[1] = test system: MDA-MB-435
[2] = test system: A498
[3] = test system: SNB-75
[4] = test system: MCF7
[5] = test system: OVCAR-3
[6] = test system: OVCAR-4
[7] = test system: CAKI-1
[8] = test system: SR
[9] = test system: 786-0
[10] = test system: SNB-19
[11] = test system: CCRF-CEM
[12] = test system: UACC-257
[13] = test system: HCT-15
[14] = test system: U-251
[15] = test system: DU-145
[16] = test system: SF-295
[17] = test system: TK-10
[18] = test system: A549
[19] = test system: Malme-3M
[20] = test system: HL-60

Measured: GI50

c1ccc(-c2ccc(/N=N/N3CCCC3)cc2)cc1
inactive: [1] > 100 µM | [2] > 100 µM | [3] > 100 µM | [4] > 100 µM | [5] > 100 µM | [6] > 100 µM | [7] > 100 µM | [8] 7.11 µM | [9] > 100 µM | [10] > 100 µM | [11] > 100 µM | [12] > 100 µM | [14] > 100 µM | [15] > 100 µM | [16] > 100 µM | [17] > 100 µM
> 100 µM: [13]

COc1ccccc1N1C(=O)/C(=C\c2cc(OC)c(OC)c(OC)c2)S(=O)(=O)C1c1ccccc1 (stereo unspecified)
inactive: [1] 16 µM | [2] 48.2 µM | [4] 27.4 µM | [5] 18.2 µM | [6] 39.9 µM | [18] 44 µM | [7] 53.3 µM | [8] 23.7 µM | [9] 54.7 µM | [10] 32.6 µM | [11] 15.6 µM | [12] 70.1 µM | [19] 26.9 µM | [14] 18.6 µM | [15] 62.1 µM | [16] 23.8 µM | [17] > 100 µM
29.5 µM: [13]

O=C1Nc2cccc(C(F)(F)F)c2/C1=N/Nc1ccccc1[N+](=O)[O-]
active: [2] 0.836 µM | [8] 0.912 µM
inactive: [1] 18.7 µM | [3] 25.6 µM | [4] 14.4 µM | [5] 17.5 µM | [6] 16.9 µM | [18] 48 µM | [7] > 100 µM | [9] 15.5 µM | [10] 51.5 µM | [11] 40.6 µM | [12] 10.3 µM | [14] 21 µM | [20] 32.9 µM | [15] 33 µM | [16] 16.4 µM | [17] 14.8 µM
34.4 µM: [13]

CC(=O)/N=C1/N(/C=C2\C(=O)Oc3ccccc3C2=O)C(=O)/C(=C/c2ccccc2Cl)N1C
52.6 µM: [13]
inactive: [1] > 100 µM | [3] 22.2 µM | [4] > 100 µM | [6] > 100 µM | [18] > 100 µM | [7] > 100 µM | [8] 69.3 µM | [9] > 100 µM | [10] 95.3 µM | [11] > 100 µM | [12] > 100 µM | [19] > 100 µM | [14] > 100 µM | [20] > 100 µM | [15] > 100 µM | [16] > 100 µM
active: [2] 0.564 µM

O=[N+]([O-])c1ccc2sc(/C=N/c3ccccn3)cc2c1
51.4 µM: [13]
inactive: [1] 71.6 µM | [2] > 100 µM | [3] > 100 µM | [4] 30.4 µM | [5] 41.8 µM | [18] > 100 µM | [7] > 100 µM | [8] 26.4 µM | [9] > 100 µM | [10] > 100 µM | [11] 33.8 µM | [12] 99.8 µM | [19] > 100 µM | [14] 33.7 µM | [20] 28.5 µM | [15] 77.6 µM | [16] 82.8 µM | [17] > 100 µM

Nc1nc(N)c(Cn2ccnc2)c(O)n1
> 100 µM: [13]
inactive: [1] > 100 µM | [2] > 100 µM | [3] > 100 µM | [4] > 100 µM | [5] > 100 µM | [6] > 100 µM | [18] > 100 µM | [7] > 100 µM | [8] > 100 µM | [9] > 100 µM | [10] > 100 µM | [12] > 100 µM | [19] > 100 µM | [14] > 100 µM | [15] > 100 µM | [16] > 100 µM | [17] > 100 µM

N=C(N)NCCC[C@H]1NC(=O)[C@@H](CCC(=O)O)NC(=O)[C@@H](CC(=O)O)NC(=O)[C@@H](CCC(=O)O)NC(=O)[C@H](Cc2c[nH]c3ccccc23)NC1=O (cyclo(W[dE][dD][dE][dR]))
inactive: [1] > 7.5 µM | [2] > 7.5 µM | [4] > 7.5 µM | [5] > 7.5 µM | [6] > 7.5 µM | [18] > 7.5 µM | [7] > 7.5 µM | [8] > 7.5 µM | [9] > 7.5 µM | [10] > 7.5 µM | [11] > 7.5 µM | [12] > 7.5 µM | [14] > 7.5 µM | [20] > 7.5 µM | [15] > 7.5 µM | [16] > 7.5 µM | [17] > 7.5 µM
> 7.5 µM: [13]

CC1(C)C2CCC(N)(C2)C1N (stereo unspecified)
inactive: [1] > 100 µM | [2] > 100 µM | [3] > 100 µM | [4] > 100 µM | [5] > 100 µM | [6] > 100 µM | [18] > 100 µM | [7] > 100 µM | [8] > 100 µM | [9] > 100 µM | [10] > 100 µM | [11] > 100 µM | [12] > 100 µM | [14] > 100 µM | [20] 22.3 µM | [15] > 100 µM | [16] > 100 µM | [17] > 100 µM
> 100 µM: [13]

Cc1cn([C@H]2C[C@H](N=[N+]=[N-])[C@@H](CO)O2)c(=O)[nH]c1=O [ZIDOVUDINE]
inactive: [1] 565 µM | [2] 66.2 µM | [4] 66.4 µM | [5] > 100 µM | [6] > 85.1 µM | [18] > 97.3 µM | [7] > 97.1 µM | [8] 177 µM | [9] > 100 µM | [11] 288 µM | [12] > 100 µM | [19] > 100 µM | [20] 646 µM | [15] 420 µM | [17] 656 µM
> 100 µM: [13]

O=c1cc(NCC2CCCCC2)[nH]c(=O)[nH]1
> 100 µM: [13]
inactive: [1] > 100 µM | [2] > 100 µM | [3] > 100 µM | [4] > 100 µM | [5] > 100 µM | [6] > 100 µM | [18] > 100 µM | [8] > 100 µM | [9] > 100 µM | [10] > 100 µM | [11] > 100 µM | [12] > 100 µM | [19] > 100 µM | [14] > 100 µM | [20] > 100 µM | [15] > 100 µM | [16] > 100 µM | [17] > 100 µM

COc1ccc(C(=O)/C=C2\Nc3cccnc3N\C2=C/C(=O)c2ccc(OC)cc2)cc1
32.1 µM: [13]
inactive: [1] 20.3 µM | [2] > 100 µM | [4] 14.8 µM | [5] 14.8 µM | [6] 2.67 µM | [18] 15.6 µM | [7] 17.2 µM | [8] 16.1 µM | [9] 2.17 µM | [10] 18.7 µM | [11] > 100 µM | [12] 26.7 µM | [19] 11.7 µM | [14] 14.6 µM | [20] > 100 µM | [15] 19.9 µM | [16] 16.9 µM | [17] 13.2 µM

Cc1cc(NS(=O)(=O)c2ccc(NC(=O)c3cccc4c(NNc5ccc(S(N)(=O)=O)cc5)c5ccccc5nc34)cc2)no1
inactive: [1] 75.7 µM | [3] 31.7 µM | [4] 81.3 µM | [5] 26.7 µM | [6] 31.8 µM | [18] > 100 µM | [7] > 100 µM | [8] 35.8 µM | [9] 54.6 µM | [10] 60.4 µM | [11] 27.9 µM | [12] > 100 µM | [19] 45.9 µM | [14] 24 µM | [20] 31 µM | [15] 86.5 µM | [16] 44.4 µM | [17] 83.2 µM
95.1 µM: [13]

COc1cc(Nc2nc3c(N)cc(C(F)(F)F)cc3nc2-c2ccccc2)cc(OC)c1OC
> 94.6 µM: [13]
inactive: [1] > 69.2 µM | [3] 17 µM | [4] 67.3 µM | [5] 57.1 µM | [6] 15 µM | [18] 49.5 µM | [7] 45.4 µM | [8] > 87.5 µM | [9] 24.3 µM | [10] 25.8 µM | [11] > 100 µM | [12] 63 µM | [19] 41.1 µM | [14] 26.1 µM | [20] > 100 µM | [15] > 100 µM | [16] 16.6 µM | [17] 29.2 µM

Cc1nc2ccccc2c(=O)n1-c1n[nH]c2ccccc12
> 100 µM: [13]
inactive: [1] > 100 µM | [2] > 100 µM | [3] > 100 µM | [4] > 100 µM | [5] > 100 µM | [6] > 100 µM | [18] > 100 µM | [7] > 100 µM | [8] > 100 µM | [9] > 100 µM | [10] > 100 µM | [11] > 100 µM | [12] > 100 µM | [19] > 100 µM | [14] > 100 µM | [15] > 100 µM | [16] > 100 µM | [17] > 100 µM

CNC(=O)OCc1cnc([N+](=O)[O-])n1C
inactive: [1] > 100 µM | [2] > 100 µM | [3] > 100 µM | [4] > 100 µM | [5] > 100 µM | [6] > 100 µM | [18] > 100 µM | [7] > 100 µM | [8] > 100 µM | [9] > 100 µM | [11] > 100 µM | [12] > 100 µM | [19] > 100 µM | [14] > 100 µM | [20] > 100 µM | [15] > 100 µM | [16] > 100 µM | [17] > 100 µM
> 100 µM: [13]
